Experimental data reported in US12590062B2, “PD-1/PD-L1 inhibitors” (Gilead Sciences, Inc., priority 2017, dated 2026).

What was measured:
PD-L1 = target: T1, PD-L1 (Homo sapiens, UniProt Q9NZQ7); experiment: PD-L1/PD-L1 dimerization biochemical protein-protein interaction assay (ALPHA); assay type: binding; details: compound-induced PD-L1 dimerization, head prints '1 nM' (0.5 nM His-tagged PD-L1 and 0.5 nM FLAG-tagged PD-L1), read-out: AC50 PDL1 Dimer Alpha 1 nM
T1 construct: determine if they can specifically dimerize the extracellular domains of PD-L1
Procedure, shortened: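 ALPHA proximity assay of compound-induced dimerization of 0.5 nM His-tagged and 0.5 nM FLAG-tagged PD-L1 extracellular domains in Hepes pH 7.4 buffer, 2 h at 25 °C. Anti-His acceptor then anti-FLAG donor beads, 60 min each; AC50 from four-parameter fit.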

PD-1/PD-L1 = PD-1/PD-L1 (Homo sapiens, UniProt Q9NZQ7); experiment: PD-1/PD-L1 biochemical protein-protein interaction assay (ALPHA); assay type: binding; details: 0.3 nM His tagged PD-L1, 2.5 nM biotinylated Fc-PD-1, 60 minutes at 25° C., read-out: IC50 PD-L1-PD-1 Alpha IC50-mono PD-L1-fcP-D1
Procedure, shortened: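 Final concentrations 0.3 nM His-tagged PD-L1 and 2.5 nM biotinylated Fc-PD-1 (extracellular domains) were reacted with compound for 60 min at 25° C in pH 7.4 Hepes/NaCl/EDTA/Tween/BSA buffer. Binding was then detected by ALPHA beads, and IC50 values were taken from four-parameter curve fitting.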

PD-1/PD-L1 interaction = target: T2, PD-1/PD-L1 interaction (Homo sapiens, UniProt Q9NZQ7); experiment: PD-1/PD-L1 NFAT reporter co-culture assay; assay type: cell-based; details: Jurkat PD-1 NFAT-luciferase cells co-cultured with aAPC-PD-L1 CHO cells, 6 hrs at 37° C.; read-out: EC50 NFAT Luciferase
T2 construct: expressed in transfected cells; host or cells: CHO cells (aAPC-PD-L1) co-cultured with Jurkat cells overexpressing PD-1 and an NFAT-luciferase reporter
Procedure, shortened: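 Jurkat cells overexpressing PD-1 with NFAT-driven luciferase were mixed with compound in RPMI 1640/2% FBS and seeded onto overnight-plated CHO aAPC-PD-L1 cells expressing surface anti-CD3 and PD-L1. Co-culture ran 6 h at 37 °C; luminescence read with ONE-Glo; EC50 from four-parameter fit.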

T2 sequence (Q9NZQ7 19-290): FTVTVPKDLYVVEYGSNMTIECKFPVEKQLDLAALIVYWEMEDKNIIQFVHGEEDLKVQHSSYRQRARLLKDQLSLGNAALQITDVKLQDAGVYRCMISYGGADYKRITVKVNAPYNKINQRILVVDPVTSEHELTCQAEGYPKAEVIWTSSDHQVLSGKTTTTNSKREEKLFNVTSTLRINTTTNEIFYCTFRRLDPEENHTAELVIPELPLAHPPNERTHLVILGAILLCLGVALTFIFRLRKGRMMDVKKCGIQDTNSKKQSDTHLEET
Sequence of PD-1/PD-L1 (Q9NZQ7 19-238 limits assumed): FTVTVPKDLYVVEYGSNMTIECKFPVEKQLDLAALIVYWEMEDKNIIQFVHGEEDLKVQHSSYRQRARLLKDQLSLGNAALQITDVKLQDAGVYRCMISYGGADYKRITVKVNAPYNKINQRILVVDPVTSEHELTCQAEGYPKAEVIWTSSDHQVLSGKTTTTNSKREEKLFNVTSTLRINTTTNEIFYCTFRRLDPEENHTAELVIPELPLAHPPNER
T1 sequence (Q9NZQ7 19-238 limits assumed): as above
T1 sequence (Q9NZQ7 19-238 limits assumed): as above

Row | Structure (SMILES) | AC50 (PD-L1) [nM] | IC50 (PD-1/PD-L1) [nM] | EC50 (PD-1/PD-L1 interaction) [nM]
1 | CNC(=O)COc1cc(-c2cccc(-c3cccc(COc4cc(OCc5cncc(C#N)c5)c(CNC[C@@H](O)CC(=O)O)cc4Cl)c3C)c2C)ccc1C1=NCCN1 [Example 436] | 77.8 | 0.064 | 544
2 | Cc1c(COc2cc(OCc3cncc(C#N)c3)c(CNC[C@@H](O)CC(=O)O)cc2Cl)cccc1-c1cccc(-c2ccc3c(CNC[C@H]4CCC(=O)N4)ccnc3c2)c1C [Example 437] | 477 | 1.61 | 476
3 | Cc1c(COc2cc(OCc3cncc(C#N)c3)c(CNC[C@@H](O)CC(=O)O)cc2Cl)cccc1-c1cccc(Nc2nccc3cc(CNCCO)cnc23)c1C [Example 438] | 168 | 0.476 | 222
4 | Cc1c(COc2cc(OCc3cncc(C#N)c3)c(CNC[C@@H](O)CC(=O)O)cc2Cl)cccc1-c1cccc(-c2ccc3c(c2)CC(NCC2CCC(=O)N2)C3)c1C (stereo partly drawn) [Example 439] | 154 | 0.376 | 270
5 | COc1ccc(-c2cccc(-c3cccc(COc4cc(OCc5cncc(C#N)c5)c(CN[C@@](C)(CO)C(=O)O)cc4Cl)c3C)c2C)cc1CN [Example 440] | 113 | 0.115 | 251
6 | Cc1c(COc2cc(OCc3cncc(C#N)c3)c(CN[C@@](C)(CO)C(=O)O)cc2Cl)cccc1-c1cccc(-c2ccc(OCCN3CCC4(CC3)CC(=O)N4)cc2)c1C [Example 441] | 301 | 0.212 | 260
7 | Cc1c(COc2cc(OCc3cncc(C#N)c3)c(CNC[C@@H](O)CC(=O)O)cc2Cl)cccc1-c1cccc(-c2ccc3c(c2)CC(N2CC(C)(O)C2)C3)c1C (stereo partly drawn) [Example 442] | 328 | 0.697 | 930
8 | Cc1c(COc2cc(OCc3cncc(C#N)c3)c(CNC(C)(CO)C(=O)O)cc2Cl)cccc1-c1cccc(-c2ccc(CN3CCC4(CC3)CNC4=O)cc2)c1C (stereo not drawn) [Example 443] | 154 | 0.064 | 276
9 | Cc1c(COc2cc(OCc3cncc(C#N)c3)c(CNC(C)(CO)C(=O)O)cc2Cl)cccc1-c1cccc(-c2ccc(CN3CCC4(CNC(=O)C4)C3)cc2)c1C (stereo not drawn) [Example 444] | 133 | 0.064 | 296
10 | Cc1c(COc2cc(OCc3cncc(C#N)c3)c(CN[C@@](C)(CO)C(=O)O)cc2Cl)cccc1-c1cccc(-c2ccc(O[C@@H]3CCNC[C@H]3F)cc2)c1Cl [Example 445] | 266 | 0.719 | 1490
11 | Cc1c(COc2cc(OCc3cncc(C#N)c3)c(CNC[C@@H](O)CC(=O)O)cc2Cl)cc(F)cc1-c1cccc(-c2ccc(OCCN3CC[C@@H](O)C3)cc2)c1C [Example 446] | 458 | 0.453 | 315
12 | Cc1c(COc2cc(OCc3cncc(C#N)c3)c(CNC[C@@H](O)CC(=O)O)cc2Cl)cccc1-c1cccc(-c2ccc3c(c2)CC(=O)N3CCN(C)C)c1C [Example 448] | 903 | 0.618 | 1010
13 | Cc1c(COc2cc(OCc3cncc(C#N)c3)c(CNC[C@@H](O)CC(=O)O)cc2Cl)cccc1-c1cccc(-n2cc(CN3CCCC3)nn2)c1C [Example 449] | 1490 | 0.653 | 2570
14 | Cc1c(COc2cc(OCc3cncc(C#N)c3)c(CNCCO)cc2Cl)cccc1-c1cccc(-c2ccc(CN(C)C)cc2)c1Br [Example 450] | 110 | 1.56 | 277
15 | Cc1c(COc2cc(OCc3cncc(C#N)c3)c(CNC(C)(CO)C(=O)O)cc2Cl)cccc1-c1cccc(-c2ccc(CN3CC4(CNC4)C3)cc2)c1C (stereo not drawn) [Example 451] | 105 | 0.104 | 472
16 | Cc1c(COc2cc(OCc3cncc(C#N)c3)c(CNC[C@@H](O)CC(=O)O)cc2Cl)cccc1-c1cccc(-c2cnc3c(CNC[C@@H](O)CC(=O)O)cccc3c2)c1C [Example 452] | 144 | 0.076 | 253

Row | Structure (SMILES) | AC50 (PD-L1) [nM] | IC50 (PD-1/PD-L1) [nM] | EC50 (PD-1/PD-L1 interaction) [nM]
17 | Cc1c(COc2cc(OCc3cncc(C#N)c3)c(CN[C@@](C)(CO)C(=O)O)cc2Cl)cccc1-c1cccc(-c2nnc(CCN3CC[C@@H](O)C3)o2)c1C [Example 453] | 326 | 0.111 | 895
18 | Cc1c(COc2cc(OCc3cncc(C#N)c3)c(CN3CC[C@@H](O)C3)cc2Cl)cccc1-c1cccc(-c2ncc(CN3CC[C@@H](O)C3)cn2)c1C [Example 454] | 943 | 1.01 | 953
19 | Cc1c(COc2cc(OCc3cncc(C#N)c3)c(CN[C@@](C)(CO)C(=O)O)cc2Cl)cccc1-c1cccc(-c2ncc(CN3CC[C@@H](O)C3)cn2)c1C [Example 455] | 686 | 0.172 | 1540
20 | Cc1c(COc2cc(OCc3cncc(C#N)c3)c(CNC[C@@H](O)CC(=O)O)cc2Cl)cccc1-c1cccc(-c2ccc(OCCNCCO)c(C(N)=O)c2)c1C [Example 456] | 182 | 0.269 | 1230
21 | Cc1c(COc2cc(OCc3cncc(C#N)c3)c(CN[C@@](C)(CO)C(=O)O)cc2Cl)cccc1-c1cc(F)cc(-c2ccc(CN(C)C)cc2)c1Cl [Example 457] | 49.3 | 0.064 | 1560
22 | CNC(=O)c1cc(-c2cccc(-c3cccc(COc4cc(OCc5cncc(C#N)c5)c(CNC[C@@H](O)CC(=O)O)cc4Cl)c3C)c2C)ccc1OCCNCCO [Example 458] | 139 | 0.325 | 429
23 | Cc1c(COc2cc(OCc3cncc(C#N)c3)c(CN[C@@](C)(CO)C(=O)O)cc2Cl)cccc1-c1cccc(-c2ccc(OCCNCCO)c(C(=O)NC3CC3)c2)c1C [Example 459] | 89.9 | 0.064 | 1200
24 | Cc1c(COc2cc(OCc3cncc(C#N)c3)c(CNC[C@@H](O)CC(=O)O)cc2Cl)cccc1-c1cccc(-c2ccc(CNC[C@@H](O)CC(=O)O)c(SC(F)F)c2)c1C [Example 460] | 302 | 0.147 | 112
25 | Cc1c(COc2cc(OCc3cncc(C#N)c3)c(CNC[C@@H](O)CC(=O)O)cc2Cl)cccc1-c1cccc(-c2ccc(CNC[C@@H](O)CC(=O)O)c(OC(F)F)c2)c1C [Example 461] | 128 | 0.064 | 47
26 | N#CCOc1cc(-c2cccc(-c3cccc(-c4ccc(CNC[C@@H]5CCC(=O)N5)c(OCC#N)c4)c3Cl)c2Cl)ccc1CNC[C@@H]1CCC(=O)N1 [Example 463] | 71.3 | 0.159 | 123
27 | Cc1c(COc2cc(OCc3cncc(C#N)c3)c(CNC[C@@H](O)CC(=O)O)cc2Cl)cccc1-c1cccc(-c2ccc(C3=NCCN3)c(OC(F)F)c2)c1C [Example 464] | 87.6 | 0.099 | 152
28 | Cc1c(COc2cc(OCc3cncc(C#N)c3)c(CNC[C@@H](O)CC(=O)O)cc2Cl)cccc1-c1cccc(-c2ccc(C3=NCCN3)c(OCCCC#N)c2)c1C [Example 465] | 84.8 | 0.116 | 193
29 | Cc1c(COc2cc(OCc3cncc(C#N)c3)c(CNC[C@@H](O)CC(=O)O)cc2Cl)cccc1-c1cccc(-c2ccc(C3=NCCN3)c(OCCCC#N)n2)c1C [Example 466] | 44.1 | 0.064 | 93
30 | Cc1c(COc2cc(OCc3cc(S(C)(=O)=O)cc(S(C)(=O)=O)c3)c(CN[C@@](C)(CO)C(=O)O)cc2Cl)cccc1-c1cccc(-c2ccc(CCCN3CC[C@@H](O)C3)cc2)c1C [Example 467] | 111 | 0.161 | 197
31 | COc1ccc2cc(-c3cccc(-c4cccc(COc5cc(OCc6cncc(C#N)c6)c(CNC[C@@H](O)CC(=O)O)cc5Cl)c4C)c3C)ccc2c1CNC[C@@H](O)CC(=O)O [Example 468] | 131 | 0.558 | 183
